From ChEMBL document CHEMBL5291721, “A preclinical secondary pharmacology resource illuminates target-adverse drug reaction associations of marketed drugs” (Nat Commun, 2023)

Tests used:
[1] = biological target: T1, 5-hydroxytryptamine receptor 3A (Homo sapiens, UniProt P46098); assay type: functional
T1 sequence (P46098 whole entry): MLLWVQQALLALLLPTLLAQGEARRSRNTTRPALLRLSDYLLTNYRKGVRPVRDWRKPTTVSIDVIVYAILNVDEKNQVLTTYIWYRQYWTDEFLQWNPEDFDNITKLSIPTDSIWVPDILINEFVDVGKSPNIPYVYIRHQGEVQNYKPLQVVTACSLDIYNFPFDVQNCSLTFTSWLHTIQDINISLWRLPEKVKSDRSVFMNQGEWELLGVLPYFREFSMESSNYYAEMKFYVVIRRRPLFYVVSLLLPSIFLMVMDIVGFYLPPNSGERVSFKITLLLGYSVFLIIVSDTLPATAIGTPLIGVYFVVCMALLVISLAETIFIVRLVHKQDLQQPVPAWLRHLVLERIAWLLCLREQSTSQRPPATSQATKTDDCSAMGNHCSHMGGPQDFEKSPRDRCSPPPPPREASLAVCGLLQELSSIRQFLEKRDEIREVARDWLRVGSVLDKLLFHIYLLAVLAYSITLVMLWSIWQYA

[2] = biological target: T2, 5-hydroxytryptamine receptor 2B (Homo sapiens, UniProt P41595); assay type: functional, cell-based
T2 sequence (P41595 whole entry): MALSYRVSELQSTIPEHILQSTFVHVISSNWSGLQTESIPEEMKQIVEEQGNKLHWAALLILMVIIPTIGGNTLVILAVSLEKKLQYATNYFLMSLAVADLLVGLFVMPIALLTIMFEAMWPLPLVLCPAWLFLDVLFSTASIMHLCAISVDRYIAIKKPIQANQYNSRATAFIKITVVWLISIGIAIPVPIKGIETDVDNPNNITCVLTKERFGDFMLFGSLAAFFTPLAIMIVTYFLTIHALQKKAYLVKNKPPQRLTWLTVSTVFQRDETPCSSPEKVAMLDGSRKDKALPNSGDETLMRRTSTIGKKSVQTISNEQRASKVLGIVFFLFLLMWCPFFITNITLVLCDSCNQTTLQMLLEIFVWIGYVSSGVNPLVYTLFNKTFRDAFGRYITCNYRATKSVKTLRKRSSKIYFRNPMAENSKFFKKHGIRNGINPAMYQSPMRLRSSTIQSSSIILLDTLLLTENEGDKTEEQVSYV

[3] = biological target: Adenosine receptor A2a (Homo sapiens, UniProt P29274)
Adenosine receptor A2a, sequence (P29274 whole entry): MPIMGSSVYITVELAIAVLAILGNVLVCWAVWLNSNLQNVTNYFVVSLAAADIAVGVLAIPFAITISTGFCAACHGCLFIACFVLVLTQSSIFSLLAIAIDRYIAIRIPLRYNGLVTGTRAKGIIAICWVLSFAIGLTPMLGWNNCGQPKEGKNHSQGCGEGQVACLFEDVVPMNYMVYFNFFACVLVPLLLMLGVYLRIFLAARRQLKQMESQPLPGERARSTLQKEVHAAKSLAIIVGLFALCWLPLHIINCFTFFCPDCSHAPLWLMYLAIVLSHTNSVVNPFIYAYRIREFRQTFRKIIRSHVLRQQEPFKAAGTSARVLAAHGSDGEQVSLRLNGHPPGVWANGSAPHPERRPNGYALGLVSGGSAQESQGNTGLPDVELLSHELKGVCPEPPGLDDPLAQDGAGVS

[4] = biological target: T3, Type-1 angiotensin II receptor (Homo sapiens, UniProt P30556)
T3 sequence (P30556 whole entry): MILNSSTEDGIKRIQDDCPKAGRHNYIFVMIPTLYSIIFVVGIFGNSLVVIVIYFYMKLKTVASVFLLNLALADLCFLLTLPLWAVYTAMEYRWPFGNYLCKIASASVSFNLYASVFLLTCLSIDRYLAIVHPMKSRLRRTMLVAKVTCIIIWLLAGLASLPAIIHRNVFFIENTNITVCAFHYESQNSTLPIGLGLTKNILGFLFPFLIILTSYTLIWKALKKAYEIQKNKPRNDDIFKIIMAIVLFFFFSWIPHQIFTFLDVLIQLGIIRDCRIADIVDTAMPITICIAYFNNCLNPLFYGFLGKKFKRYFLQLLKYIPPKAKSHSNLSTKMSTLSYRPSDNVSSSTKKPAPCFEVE

[5] = biological target: T4, Alpha-2C adrenergic receptor (Homo sapiens, UniProt P18825); assay type: functional
T4 sequence (P18825 whole entry): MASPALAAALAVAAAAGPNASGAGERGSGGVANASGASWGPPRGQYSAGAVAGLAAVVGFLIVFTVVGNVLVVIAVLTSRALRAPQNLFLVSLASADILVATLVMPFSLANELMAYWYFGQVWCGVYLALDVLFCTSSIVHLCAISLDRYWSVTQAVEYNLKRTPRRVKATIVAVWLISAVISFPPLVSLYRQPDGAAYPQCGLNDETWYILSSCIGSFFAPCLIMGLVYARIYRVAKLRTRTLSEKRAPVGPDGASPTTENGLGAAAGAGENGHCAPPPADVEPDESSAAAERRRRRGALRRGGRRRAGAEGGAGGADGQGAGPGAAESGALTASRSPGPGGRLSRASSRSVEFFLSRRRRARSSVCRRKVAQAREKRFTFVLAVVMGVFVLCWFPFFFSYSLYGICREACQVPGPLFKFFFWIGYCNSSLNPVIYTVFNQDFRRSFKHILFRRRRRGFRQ

[6] = biological target: T5, 5-hydroxytryptamine receptor 1A (Homo sapiens, UniProt P08908); assay type: functional, cell-based
T5 sequence (P08908 whole entry): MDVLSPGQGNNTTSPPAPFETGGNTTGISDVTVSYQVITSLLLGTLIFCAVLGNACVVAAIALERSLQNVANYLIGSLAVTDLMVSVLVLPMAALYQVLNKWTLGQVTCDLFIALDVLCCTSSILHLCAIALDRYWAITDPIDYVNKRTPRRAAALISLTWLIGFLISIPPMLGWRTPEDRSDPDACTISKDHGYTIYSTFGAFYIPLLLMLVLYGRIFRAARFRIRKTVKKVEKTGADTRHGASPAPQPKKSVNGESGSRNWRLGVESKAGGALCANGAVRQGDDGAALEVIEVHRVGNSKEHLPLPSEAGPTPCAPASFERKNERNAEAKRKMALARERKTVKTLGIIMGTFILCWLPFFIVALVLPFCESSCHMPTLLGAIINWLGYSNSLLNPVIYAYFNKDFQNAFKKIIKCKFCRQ

[7] = biological target: T6, Thromboxane A2 receptor (Homo sapiens, UniProt P21731)
T6 sequence (P21731 whole entry): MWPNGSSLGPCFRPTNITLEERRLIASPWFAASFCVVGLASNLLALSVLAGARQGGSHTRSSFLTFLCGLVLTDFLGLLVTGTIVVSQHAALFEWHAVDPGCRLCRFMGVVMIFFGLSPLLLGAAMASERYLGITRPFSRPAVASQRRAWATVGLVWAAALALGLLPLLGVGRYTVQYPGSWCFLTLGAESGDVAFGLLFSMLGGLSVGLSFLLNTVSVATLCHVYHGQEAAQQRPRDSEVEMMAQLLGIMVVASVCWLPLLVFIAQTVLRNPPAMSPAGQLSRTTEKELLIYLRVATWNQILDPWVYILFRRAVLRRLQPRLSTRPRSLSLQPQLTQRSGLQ

[8] = biological target: 3',5'-cyclic-AMP phosphodiesterase 4D (Homo sapiens, UniProt Q08499); assay type: functional
3',5'-cyclic-AMP phosphodiesterase 4D, sequence (Q08499 whole entry): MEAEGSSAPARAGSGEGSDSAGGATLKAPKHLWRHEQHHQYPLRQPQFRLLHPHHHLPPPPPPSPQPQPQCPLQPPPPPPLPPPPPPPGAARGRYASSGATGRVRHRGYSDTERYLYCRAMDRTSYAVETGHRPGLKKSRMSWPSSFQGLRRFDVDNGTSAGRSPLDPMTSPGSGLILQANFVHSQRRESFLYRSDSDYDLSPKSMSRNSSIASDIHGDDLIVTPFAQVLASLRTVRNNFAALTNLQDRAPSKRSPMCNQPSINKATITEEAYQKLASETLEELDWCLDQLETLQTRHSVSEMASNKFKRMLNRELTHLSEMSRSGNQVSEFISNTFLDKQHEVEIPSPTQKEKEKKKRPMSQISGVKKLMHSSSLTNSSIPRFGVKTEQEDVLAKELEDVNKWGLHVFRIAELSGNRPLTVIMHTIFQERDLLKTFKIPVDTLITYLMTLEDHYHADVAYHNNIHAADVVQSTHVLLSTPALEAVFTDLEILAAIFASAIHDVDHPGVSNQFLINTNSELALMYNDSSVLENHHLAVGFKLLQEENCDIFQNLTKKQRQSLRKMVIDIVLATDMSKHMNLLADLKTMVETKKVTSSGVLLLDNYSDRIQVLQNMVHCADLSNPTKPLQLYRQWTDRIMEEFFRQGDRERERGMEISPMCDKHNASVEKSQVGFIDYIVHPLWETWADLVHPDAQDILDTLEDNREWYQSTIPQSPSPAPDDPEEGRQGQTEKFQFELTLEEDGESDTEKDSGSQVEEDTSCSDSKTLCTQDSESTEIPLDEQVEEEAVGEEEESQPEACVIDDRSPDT

[9] = biological target: T7, Neuropeptide Y receptor type 1 (Homo sapiens, UniProt P25929)
T7 sequence (P25929 whole entry): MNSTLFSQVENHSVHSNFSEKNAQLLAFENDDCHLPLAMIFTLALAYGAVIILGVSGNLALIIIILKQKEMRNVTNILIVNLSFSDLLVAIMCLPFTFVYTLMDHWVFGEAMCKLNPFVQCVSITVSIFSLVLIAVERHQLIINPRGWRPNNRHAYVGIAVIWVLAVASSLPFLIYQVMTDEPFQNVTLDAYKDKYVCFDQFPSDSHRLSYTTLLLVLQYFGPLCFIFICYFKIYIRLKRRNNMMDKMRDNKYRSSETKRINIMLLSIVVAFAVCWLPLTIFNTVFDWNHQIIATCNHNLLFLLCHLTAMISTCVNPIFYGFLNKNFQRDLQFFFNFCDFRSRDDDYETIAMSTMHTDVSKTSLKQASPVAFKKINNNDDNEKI

[10] = biological target: Motilin receptor (Homo sapiens, UniProt O43193)
Motilin receptor, sequence (O43193 whole entry): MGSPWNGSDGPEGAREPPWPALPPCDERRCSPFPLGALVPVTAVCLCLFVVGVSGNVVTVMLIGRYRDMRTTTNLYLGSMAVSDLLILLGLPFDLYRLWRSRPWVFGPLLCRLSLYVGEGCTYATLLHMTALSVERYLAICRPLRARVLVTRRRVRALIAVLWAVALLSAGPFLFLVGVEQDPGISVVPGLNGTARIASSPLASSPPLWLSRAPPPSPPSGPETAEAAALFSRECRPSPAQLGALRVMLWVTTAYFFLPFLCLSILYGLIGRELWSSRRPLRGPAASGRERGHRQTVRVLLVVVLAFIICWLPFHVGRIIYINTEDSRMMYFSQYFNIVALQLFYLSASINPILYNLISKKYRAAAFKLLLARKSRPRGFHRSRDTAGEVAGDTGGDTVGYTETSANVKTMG

[11] = biological target: D(3) dopamine receptor (Homo sapiens, UniProt P35462)
D(3) dopamine receptor, sequence (P35462 whole entry): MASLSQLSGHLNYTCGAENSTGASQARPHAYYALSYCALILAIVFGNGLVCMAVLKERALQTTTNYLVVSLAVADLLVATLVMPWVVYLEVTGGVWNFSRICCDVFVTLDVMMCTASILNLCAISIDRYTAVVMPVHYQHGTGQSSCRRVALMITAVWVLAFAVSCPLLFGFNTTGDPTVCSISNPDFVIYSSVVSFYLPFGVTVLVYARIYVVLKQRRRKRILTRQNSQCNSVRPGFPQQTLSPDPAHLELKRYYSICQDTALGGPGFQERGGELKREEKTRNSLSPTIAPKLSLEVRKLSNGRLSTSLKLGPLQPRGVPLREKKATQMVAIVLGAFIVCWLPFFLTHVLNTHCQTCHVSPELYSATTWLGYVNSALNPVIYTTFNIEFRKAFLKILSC

[12] = biological target: T2, 5-hydroxytryptamine receptor 2B; assay type: functional, cell-based; remark: listed apart in the source
Note: assay procedure not described here.

| Structure (SMILES) | AC50 [1] | AC50 [2] | AC50 [3] | AC50 [4] | AC50 [5] | AC50 [6] | AC50 [7] | AC50 [8] | AC50 [9] | AC50 [10] | AC50 [11] | AC50 [12] |
| --- | --- | --- | --- | --- | --- | --- | --- | --- | --- | --- | --- | --- |
| C[C@@H]1CCC[C@H](C)N1NC(=O)c1ccc(Cl)c(S(N)(=O)=O)c1 [CLOPAMIDE] | > 30 µM | > 30 µM | > 30 µM | > 30 µM | > 30 µM | > 30 µM | > 30 µM | > 30 µM | > 30 µM | > 30 µM | > 30 µM | > 30 µM |
| COc1cccc(N(C)C(=S)Oc2ccc3c(c2)CCCC3)n1 [LIRANAFTATE] | > 30 µM | > 30 µM | > 30 µM | > 30 µM | > 30 µM | > 30 µM | > 30 µM | > 30 µM | > 30 µM | > 30 µM | > 30 µM | > 30 µM |
| C#C[C@]1(O)CC[C@H]2[C@@H]3CCc4cc(OC)ccc4[C@H]3CC[C@@]21C [MESTRANOL] | > 30 µM | > 10 µM | > 30 µM | > 10 µM | > 30 µM | > 10 µM | > 10 µM | > 30 µM | > 10 µM | > 10 µM | > 30 µM | > 10 µM |
| O=c1oc2ccccc2c(O)c1Cc1c(O)c2ccccc2oc1=O [DICUMAROL] | > 30 µM | > 10 µM | > 10 µM | > 10 µM | > 10 µM | > 10 µM | > 10 µM | 6.3 µM | > 10 µM | > 10 µM | > 30 µM | > 10 µM |
| N=C(N)c1ccc2cc(OC(=O)c3ccc(N=C(N)N)cc3)ccc2c1 [NAFAMOSTAT] | 14 µM | > 30 µM | > 30 µM | > 30 µM | 3.2 µM | > 30 µM | > 30 µM | > 30 µM | 10 µM | 27 µM | 4.6 µM | 29 µM |

Results, then the molecule that gave them:

| AC50 [1] | AC50 [2] | AC50 [3] | AC50 [4] | AC50 [5] | AC50 [6] | AC50 [7] | AC50 [8] | AC50 [9] | AC50 [10] | AC50 [11] | AC50 [12] | Structure (SMILES) |
| --- | --- | --- | --- | --- | --- | --- | --- | --- | --- | --- | --- | --- |
| > 30 µM | > 30 µM | > 30 µM | > 30 µM | > 30 µM | > 30 µM | > 30 µM | > 30 µM | > 30 µM | > 30 µM | > 30 µM | > 30 µM | NS(=O)(=O)c1cc(C(=O)O)cc(N2CCCC2)c1Oc1ccccc1 [PIRETANIDE] |
| > 10 µM | > 10 µM | > 10 µM | > 30 µM | 0.16 µM | > 10 µM | > 10 µM | > 10 µM | > 10 µM | > 10 µM | 0.046 µM | 0.92 µM | OCCN1CCN(CC/C=C2/c3ccccc3Sc3ccc(Cl)cc32)CC1 [ZUCLOPENTHIXOL] |
| 2.6 µM | > 30 µM | > 30 µM | > 30 µM | 2.7 µM | > 30 µM | > 30 µM | > 30 µM | > 30 µM | > 30 µM | 1.6 µM | > 30 µM | O=C(O)c1cc(O)c2c3nc4ccccc4oc-3cc(=O)c2n1 [PIRENOXINE] |
